Test results taken from the supplement of paper PMC10307832.

What was measured:
Assay in all cases: relative viability (nuclei count vs DMSO), 5 days (fraction); higher = more cells survive
Dovitinib + Vorinostat = compound: CN1CCN(c2ccc3nc(-c4c(N)c5c(F)cccc5[nH]c4=O)[nH]c3c2)CC1 [Dovitinib] + O=C(CCCCCCC(=O)Nc1ccccc1)NO [Vorinostat] (partner 1 µM)
Method in brief: (§1)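 Lung cancer cell lines were pin-tool dosed in 1536-well plates on the day after seeding, with either a lone drug or a fixed anchor-drug dose plus five library-drug doses (not always all listed) in √10 steps. Nuclei were counted on 4× images after 5 days. Relative viability is the ratio of treated-well to vehicle-well nuclei counts, with each value a median of duplicate plates.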

Dovitinib + Dasatinib = compound: CN1CCN(c2ccc3nc(-c4c(N)c5c(F)cccc5[nH]c4=O)[nH]c3c2)CC1 [Dovitinib] + Cc1nc(Nc2ncc(C(=O)Nc3c(C)cccc3Cl)s2)cc(N2CCN(CCO)CC2)n1 [Dasatinib] (partner 0.075 µM)
Method in brief: as §1

Dovitinib + Pictilisib = compound: CN1CCN(c2ccc3nc(-c4c(N)c5c(F)cccc5[nH]c4=O)[nH]c3c2)CC1 [Dovitinib] + CS(=O)(=O)N1CCN(Cc2cc3nc(-c4cccc5[nH]ncc45)nc(N4CCOCC4)c3s2)CC1 [Pictilisib] (partner 1 µM)
Method in brief: as §1

Dovitinib + Crizotinib = compound: CN1CCN(c2ccc3nc(-c4c(N)c5c(F)cccc5[nH]c4=O)[nH]c3c2)CC1 [Dovitinib] + C[C@@H](Oc1cc(-c2cnn(C3CCNCC3)c2)cnc1N)c1c(Cl)ccc(F)c1Cl [Crizotinib] (partner 1 µM)
Method in brief: as §1

| Cell Line | relative viability (Dovitinib + Vorinostat; first compound 0.02 µM) | relative viability (Dovitinib + Vorinostat; first compound 0.06325 µM) | relative viability (Dovitinib + Vorinostat; first compound 0.2 µM) | relative viability (Dovitinib + Vorinostat; first compound 0.6325 µM) | relative viability (Dovitinib + Vorinostat; first compound 2 µM) | relative viability (Dovitinib + Dasatinib; first compound 0.02 µM) | relative viability (Dovitinib + Dasatinib; first compound 0.06325 µM) | relative viability (Dovitinib + Dasatinib; first compound 0.2 µM) | relative viability (Dovitinib + Dasatinib; first compound 0.6325 µM) | relative viability (Dovitinib + Dasatinib; first compound 2 µM) | relative viability (Dovitinib + Pictilisib; first compound 0.02 µM) | relative viability (Dovitinib + Pictilisib; first compound 0.06325 µM) | relative viability (Dovitinib + Pictilisib; first compound 0.2 µM) | relative viability (Dovitinib + Pictilisib; first compound 0.6325 µM) | relative viability (Dovitinib + Pictilisib; first compound 2 µM) | relative viability (Dovitinib + Crizotinib; first compound 0.02 µM) | relative viability (Dovitinib + Crizotinib; first compound 0.06325 µM) | relative viability (Dovitinib + Crizotinib; first compound 0.2 µM) | relative viability (Dovitinib + Crizotinib; first compound 0.6325 µM) | relative viability (Dovitinib + Crizotinib; first compound 2 µM) |
| --- | --- | --- | --- | --- | --- | --- | --- | --- | --- | --- | --- | --- | --- | --- | --- | --- | --- | --- | --- | --- |
| NCI-H650 | 0.368 | 0.414 | 0.58 | 0.395 | 0.774 | 0.48 | 0.383 | 0.49 | 0.5 | 0.432 | 0.867 | 0.789 | 0.931 | 0.758 | 1.01 | 0.771 | 0.638 | 0.563 | 0.645 | 0.789 |
| NCI-H661 | 0.733 | 0.837 | 0.826 | 0.938 | 0.843 | 0.85 | 0.829 | 1.01 | 0.984 | 0.936 | 0.427 | 0.465 | 0.455 | 0.427 | 0.359 | 0.915 | 0.863 | 0.928 | 0.942 | 0.891 |
| NCI-H727 | 1.19 | 1.12 | 1.25 | 1.39 | 1.25 | 0.482 | 0.393 | 0.422 | 0.395 | 0.385 | 0.456 | 0.379 | 0.423 | 0.427 | 0.395 | 0.42 | 0.757 | 0.657 | 0.877 | 0.813 |
| NCI-H838 | 0.711 | 0.742 | 0.706 | 0.716 | 0.677 | 0.293 | 0.269 | 0.31 | 0.273 | 0.288 | 0.458 | 0.431 | 0.499 | 0.466 | 0.503 | 0.788 | 0.817 | 0.818 | 0.816 | 0.785 |
| NCI-H1355 | 0.671 | 0.638 | 0.628 | 0.695 | 0.704 | 0.678 | 0.673 | 0.723 | 0.744 | 0.771 | 0.459 | 0.305 | 0.478 | 0.479 | 0.48 | 1.06 | 1.02 | 1.06 | 1.09 | 1.06 |
| NCI-H1437 | 0.884 | 0.847 | 0.9 | 0.803 | 0.745 | 0.414 | 0.397 | 0.353 | 0.39 | 0.452 | 0.512 | 0.537 | 0.434 | 0.494 | 0.464 | 0.867 | 0.947 | 0.781 | 0.929 | 0.868 |
| NCI-H1650 | 0.569 | 0.432 | 0.785 | 0.703 | 0.554 | 0.335 | 0.26 | 0.365 | 0.348 | 0.384 | 0.62 | 0.577 | 0.654 | 0.608 | 0.678 | 0.945 | 1.02 | 1.06 | 1.14 | 1.02 |
| NCI-H1651 | 0.491 | 0.593 | 0.539 | 0.597 | 0.543 | 0.388 | 0.43 | 0.484 | 0.469 | 0.486 | 0.577 | 0.528 | 0.598 | 0.551 | 0.5 | 0.927 | 0.882 | 0.824 | 0.829 | 0.858 |
